Laboratory results from PubChem BioAssay (NCI).
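All cell lines were grown in 96-well plates and treated with compound for 48 hours. The concentration for full growth arrest is given as TGI.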

Tests used:
Assay in all cases: growth of human tumour cells (NCI), 48 h
MDA-MB-231 breast = test system: MDA-MB-231 breast
UO-31 renal = test system: UO-31 renal
SK-MEL-28 melanoma = test system: SK-MEL-28 melanoma
HS 578T breast = test system: HS 578T breast
SK-MEL-5 melanoma = test system: SK-MEL-5 melanoma
OVCAR-3 ovarian = test system: OVCAR-3 ovarian
MCF7 breast = test system: MCF7 breast
MDA-MB-435 = test system: MDA-MB-435
PC-3 prostate = test system: PC-3 prostate
DU-145 prostate = test system: DU-145 prostate
SF-295 CNS = test system: SF-295 CNS
HOP-92 NSCLC = test system: HOP-92 NSCLC
MOLT-4 leukemia = test system: MOLT-4 leukemia
SF-539 CNS = test system: SF-539 CNS
NCI-H23 lung = test system: NCI-H23 lung
U251 CNS = test system: U251 CNS
A498 renal = test system: A498 renal
NCI-H522 lung = test system: NCI-H522 lung
RPMI-8226 leukemia = test system: RPMI-8226 leukemia
OVCAR-5 ovarian = test system: OVCAR-5 ovarian
SNB-19 CNS = test system: SNB-19 CNS
RXF 393 renal = test system: RXF 393 renal
COLO 205 colon = test system: COLO 205 colon
UACC-257 melanoma = test system: UACC-257 melanoma
MALME-3M melanoma = test system: MALME-3M melanoma
SW-620 colon = test system: SW-620 colon
SK-MEL-2 melanoma = test system: SK-MEL-2 melanoma
HCT-116 colon = test system: HCT-116 colon
NCI-H460 lung = test system: NCI-H460 lung
CCRF-CEM leukemia = test system: CCRF-CEM leukemia
EKVX NSCLC = test system: EKVX NSCLC
NCI/ADR-RES ovarian = test system: NCI/ADR-RES ovarian
TK-10 renal = test system: TK-10 renal
OVCAR-8 ovarian = test system: OVCAR-8 ovarian
KM12 colon = test system: KM12 colon
SF-268 CNS = test system: SF-268 CNS
IGROV1 ovarian = test system: IGROV1 ovarian
786-0 renal = test system: 786-0 renal
BT-549 breast = test system: BT-549 breast
HOP-62 NSCLC = test system: HOP-62 NSCLC
SNB-75 CNS = test system: SNB-75 CNS
UACC-62 melanoma = test system: UACC-62 melanoma
SR leukemia = test system: SR leukemia
HCC-2998 colon = test system: HCC-2998 colon
T-47D breast = test system: T-47D breast
SN12C renal = test system: SN12C renal
OVCAR-4 ovarian = test system: OVCAR-4 ovarian
NCI-H226 lung = test system: NCI-H226 lung
K-562 leukemia = test system: K-562 leukemia
HL-60(TB) leukemia = test system: HL-60(TB) leukemia
M14 melanoma = test system: M14 melanoma
A549 NSCLC = test system: A549 NSCLC
CAKI-1 renal = test system: CAKI-1 renal

With O=CC1C(Cl)=Nc2nc3ccccc3n2C1c1ccc([N+](=O)[O-])cc1 (stereo not drawn) the TGI (MDA-MB-231 breast) was 45.4 µM, the TGI (UO-31 renal) was 14.8 µM and the TGI (SK-MEL-28 melanoma) was 5.09 µM. The TGI (HS 578T breast) was over 100 µM, the TGI (SK-MEL-5 melanoma) was 37.9 µM and the TGI (OVCAR-3 ovarian) was over 100 µM. The TGI (MCF7 breast) was 67.9 µM, the TGI (MDA-MB-435) was 27.8 µM and the TGI (PC-3 prostate) was over 100 µM. The TGI (DU-145 prostate) was 32.4 µM, the TGI (SF-295 CNS) was 50.7 µM and the TGI (HOP-92 NSCLC) was 20.7 µM. It also gave a TGI (MOLT-4 leukemia) of 6.29 µM, a TGI (SF-539 CNS) of over 100 µM and a TGI (NCI-H23 lung) of 57.1 µM. For the same molecule, the TGI (U251 CNS) was 44.5 µM, the TGI (A498 renal) was 47.4 µM and the TGI (NCI-H522 lung) was 12.8 µM. The TGI (RPMI-8226 leukemia) was over 100 µM, the TGI (OVCAR-5 ovarian) was over 100 µM and the TGI (SNB-19 CNS) was 36.3 µM. For the same molecule, the TGI (RXF 393 renal) was 7.15 µM, the TGI (COLO 205 colon) was over 100 µM and the TGI (UACC-257 melanoma) was 31.5 µM. The TGI (MALME-3M melanoma) was 31.6 µM, the TGI (SW-620 colon) was over 100 µM and the TGI (SK-MEL-2 melanoma) was 21.4 µM. The TGI (HCT-116 colon) was over 100 µM, the TGI (NCI-H460 lung) was 94 µM and the TGI (CCRF-CEM leukemia) was over 100 µM. It also gave a TGI (EKVX NSCLC) of 53.5 µM, a TGI (NCI/ADR-RES ovarian) of over 100 µM and a TGI (TK-10 renal) of 16.1 µM. It also gave a TGI (OVCAR-8 ovarian) of 27.7 µM, a TGI (KM12 colon) of 82.9 µM and a TGI (SF-268 CNS) of 62.2 µM. The TGI (IGROV1 ovarian) was 26 µM, the TGI (786-0 renal) was over 100 µM and the TGI (BT-549 breast) was 2580 nM. The TGI (HOP-62 NSCLC) was over 100 µM, the TGI (SNB-75 CNS) was 5.28 µM and the TGI (UACC-62 melanoma) was 35.6 µM. For the same molecule, the TGI (SR leukemia) was 5.97 µM, the TGI (HCC-2998 colon) was 49.4 µM and the TGI (T-47D breast) was 4.19 µM. It also gave a TGI (SN12C renal) of 51.4 µM, a TGI (OVCAR-4 ovarian) of 30.9 µM and a TGI (NCI-H226 lung) of 9.27 µM. It also gave a TGI (K-562 leukemia) of 78.5 µM, a TGI (HL-60(TB) leukemia) of 20.2 µM and a TGI (M14 melanoma) of over 100 µM. For the same molecule, the TGI (A549 NSCLC) was over 100 µM and the TGI (CAKI-1 renal) was 7.65 µM.
